Measurements from patent US20210251267A1, “LIGUSTROSIDIC ACID AND DERIVATIVES THEREOF FOR SWEETNESS ENHANCEMENT” (International Flavors & Fragrances Inc., priority 2018, published 2021).

Assays:
Set-up in all cases: species or system human
[1] = Enhancement of Luo Han Guo sweetness (flavor profile); conditions: Luo Han Guo solution (120 ppm), all levels tested
Text: (§1) The term “sweetness” or “sweetness intensity” is understood to mean the relative strength of sweet sensation as observed or experienced by an individual, e.g., a human, or a degree or amount of sweetness detected by a taster, for example on the scale from 0 (none) to 8 (very strong) used in sensory evaluations according to the procedure described in American Society for Testing Materials, Special Technical Publication-434: “Manual on Sensory Testing Methods,” ASTM International, West Conshohocken, Pa. (1996).
A Luo Han Guo (Biovittoria Ltd., New Zealand) solution was prepared in water (120 ppm). Ligustrosidic acid and 2′-hydroxy ligustrosidic acid solutions were prepared as above (EXAMPLE II). The flavor profile of the Luo Han Guo solution with added ligustrosidic acid and 2′-hydroxy ligustrosidic acid is reported in the following:
(§2) Solutions of sucrose (4%) and Luo Han Guo (120 ppm) were prepared as above (EXAMPLE II and III). In addition, solutions of fructose (3.4%), Reb A (GLG Life Tech Corporation, Canada) (90 ppm) and GSG (Glucosyl Steviol Glucosides, GLG Life Tech Corporation, Canada) (200 ppm) were also prepared in water.
The Luo Han Guo solution (120 ppm) with the addition of various amount of Carica papaya leave extract was evaluated.

[2] = Enhancement of sucrose sweetness (flavor profile of sucrose solution with added substance); conditions: sucrose solution (4%), all levels tested
Text: as §1
(§3) A sucrose solution (4%) was prepared in water. Each of ligustrosidic acid and 2′-hydroxy ligustrosidic acid solutions of different concentrations was prepared in ethanol solution in water (50%). Ligustrosidic acid and 2′-hydroxy ligustrosidic acid were evaluated at 1 and 200 ppm, respectively.
The flavor profile of the sucrose solution with added ligustrosidic acid and 2′-hydroxy ligustrosidic acid is reported in the following:
as §2
The sucrose solution (4%) with the addition of various amount of Carica papaya leave extract was evaluated.

[3] = Taste and smell of the compounds alone
Description: as §3

Row | Structure (SMILES) | Overall effect on Luo Han Guo sweetness (summary in words) ([1]; listed as Ligustrosidic acid) | Overall effect on Luo Han Guo sweetness (summary in words) ([1]; listed as ligustrosidic acid) | Overall effect on sucrose sweetness (summary in words) ([2]; listed as Ligustrosidic acid) | Overall effect on sucrose sweetness (summary in words) ([2]; listed as ligustrosidic acid) | Taste and smell of the compound alone ([3]; evaluated at 1 ppm) | Overall effect on Luo Han Guo sweetness (summary in words) [1] | Overall effect on sucrose sweetness (summary in words) [2] | Taste and smell of the compound alone ([3]; evaluated at 200 ppm)
1 | COC(=O)C1=COC(OC2OC(CO)C(O)C(O)C2O)C(=CC(=O)O)C1CC(=O)OCCc1ccc(O)cc1 (stereo in doubt) [Ligustrosidic Acid, [3-(carboxymethylene)-2-(β-D-glucopyranosyloxy)-3,4-dihydro-5-(methoxycarbonyl)]-2H-pyran-4-acetic acid-α-[2-(4-hydroxyphenyl)ethyl]ester] | particularly strong effect | enhanced overall sweetness, body and mouthfeel | particularly strong effect | enhanced overall sweetness, body and mouthfeel | devoid of taste and smell |  |  | 
2 | COC(=O)C1=COC(OC2OC(CO)C(O)C(O)C2O)/C(=C\C(=O)O)C1CC(=O)OCCc1ccc(O)c(O)c1 (centres unmarked) [2′-Hydroxy Ligustrosidic Acid, 2′-hydroxy ligustrosidic acid] |  |  |  |  |  | strong effect in sweetness enhancement | strong effect in sweetness enhancement | devoid of taste and smell
